Counter-ions that a name gives are not always drawn.
Columns and labels:
[1] = test system: ID188 patient-derived PDAC 2D line (pre-FOLFIRINOX); assay: normalised area under dose-response curve (viability relative to DMSO, 7 doses up to 10 µM) (fraction (AUC)); higher = less sensitive (more viability retained); details: 72 h; top dose: 10 µM
Summary of the method: (§1)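 2D PDAC cells grown out from patient-derived organoids were robotically seeded in 96-well plates at 1,500–3,000 cells/well and kept overnight at 37°C in 5% CO2. Compounds from a SelleckChem library were then applied for 72 h at seven concentrations, made as a 3-fold dilution series with 10 µM as the highest. CellTiter-Glo luminescence was measured 10 min later. Viability was normalised to control wells, and the GRmetrics R package was used to derive the area under the dose-response curve.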

[2] = test system: ID211 patient-derived PDAC 2D line (post-FOLFIRINOX); assay: as above; details: 72 h; top dose: 10 µM
Summary of the method: as §1

O=C(CCNC(=O)c1ccc(OC(F)(F)F)cc1)N[C@@H]1CCCc2ccccc21 [ML390]
normalised area under dose-response curve [1]: 0.983 | normalised area under dose-response curve [2]: 0.788

C[C@@H](NC(=O)c1ncnc(N)c1Cl)c1ncc(C(=O)Nc2cc(C(F)(F)F)c(Cl)cn2)s1 [MLN2480]
normalised area under dose-response curve [1]: 0.905 | normalised area under dose-response curve [2]: 0.818

CC(C)Oc1ccc(-c2c[nH]cc2CN(C)CCN)cc1 [MS023]
normalised area under dose-response curve [1]: 0.842 | normalised area under dose-response curve [2]: 0.634

Cc1cc(/N=N/c2ccc(S(=O)(=O)Nc3ccccn3)cc2)c(N)cc1O [MS436]
normalised area under dose-response curve [1]: 0.977 | normalised area under dose-response curve [2]: 0.957

Cc1ccc(NC(=O)c2ccc(CN3CCN(C)CC3)cc2)cc1Nc1nc(-c2cccnc2)cs1 [Masitinib (AB1010)]
normalised area under dose-response curve [1]: 0.959 | normalised area under dose-response curve [2]: 0.83

COc1cc(-n2c(=S)[nH]c3ccccc3c2=O)c(Cl)cc1Cl [Mdivi-1]
normalised area under dose-response curve [1]: 0.885 | normalised area under dose-response curve [2]: 0.957

N[C@@H](Cc1ccc(N(CCCl)CCCl)cc1)C(=O)O [Melphalan]
normalised area under dose-response curve [1]: 0.87 | normalised area under dose-response curve [2]: 0.853

CCS(=O)(=O)Nc1ccc(Oc2ccc(F)cc2F)c(-c2cn(C)c(=O)c3[nH]ccc23)c1 [Mivebresib(ABBV-075)]
normalised area under dose-response curve [1]: 0.666 | normalised area under dose-response curve [2]: 0.538

CCCN(CCC)C(=O)C1=Cc2ccc(-c3ccc(C(=O)N4CCCC4)cc3)cc2N=C(N)C1 [Motolimod (VTX-2337)]
normalised area under dose-response curve [1]: 0.969 | normalised area under dose-response curve [2]: 0.822

FC(F)(F)c1ccc(/C=C/c2nc(COc3ccc(CCCCn4ccnn4)cc3)co2)cc1 [Mubritinib (TAK 165)]
normalised area under dose-response curve [1]: 0.735 | normalised area under dose-response curve [2]: 0.784

CC(C)CCn1c(CN2CCN(C(=O)C3CC3)CC2)nc2c1c(=O)n(C)c(=O)n2C [NCT-501]
normalised area under dose-response curve [1]: 0.965 | normalised area under dose-response curve [2]: 0.822

Cc1cc(C)nc(NC(=S)N2CCN(Cc3ccc(C(F)(F)F)cc3)CC2)c1 [NCT-503]
normalised area under dose-response curve [1]: 0.954 | normalised area under dose-response curve [2]: 0.909

Cc1cc(OCc2nnc(SC3CCCC3)n2-c2cccnc2)ccc1-c1ccc(S(C)(=O)=O)cc1 [NMS-873]
normalised area under dose-response curve [1]: 0.8 | normalised area under dose-response curve [2]: 0.406

Oc1cc(CNC(=S)/C=C/c2cc(O)c(O)c(Br)c2)cc(O)c1O [NT157]
normalised area under dose-response curve [1]: 0.943 | normalised area under dose-response curve [2]: 0.886

O=c1cc(N2CCOCC2)oc2c1ccc1ccccc12 [NU7026]
normalised area under dose-response curve [1]: 0.998 | normalised area under dose-response curve [2]: 0.846

Cc1ccc(C(=O)Nc2cccc(C(F)(F)F)c2)cc1Nc1nc(-c2cccnc2)nc2c1cnn2C [NVP-BHG712]
normalised area under dose-response curve [1]: 0.869 | normalised area under dose-response curve [2]: 0.831

COc1cc2c(cc1OC(C)C)[C@H](c1ccc(Cl)cc1)N(c1ccc(N(C)C[C@H]3CC[C@H](N4CCN(C)C(=O)C4)CC3)cc1)C(=O)C2 [NVP-CGM097]
normalised area under dose-response curve [1]: 0.988 | normalised area under dose-response curve [2]: 0.72

CC(=O)c1cc2c(o1)C(=O)c1ccccc1C2=O [Napabucasin]
normalised area under dose-response curve [1]: 0.65 | normalised area under dose-response curve [2]: 0.708

CCOc1cc2ncc(C#N)c(Nc3ccc(OCc4ccccn4)c(Cl)c3)c2cc1NC(=O)/C=C/CN(C)C [Neratinib (HKI-272)]
normalised area under dose-response curve [1]: 0.893 | normalised area under dose-response curve [2]: 0.638

COC(=O)c1ccc2c(c1)NC(=O)/C2=C(\Nc1ccc(N(C)C(=O)CN2CCN(C)CC2)cc1)c1ccccc1 [Nintedanib (BIBF 1120)]
normalised area under dose-response curve [1]: 0.915 | normalised area under dose-response curve [2]: 0.86

COC(=O)c1ccc2c(C(=Nc3ccc(N(C)C(=O)CN4CCN(C)CC4)cc3)c3ccccc3)c(O)[nH]c2c1 [Nintedanib Ethanesulfonate Salt]
normalised area under dose-response curve [1]: 0.833 | normalised area under dose-response curve [2]: 0.791

COc1ccc(C2=N[C@@H](c3ccc(Cl)cc3)[C@@H](c3ccc(Cl)cc3)N2C(=O)N2CCNC(=O)C2)c(OC(C)C)c1 [Nutlin-3]
normalised area under dose-response curve [1]: 0.97 | normalised area under dose-response curve [2]: 0.82

O=C(Nc1ccc(OC(F)(F)F)cc1)c1sccc1NCc1ccnc2ccccc12 [OSI-930]
normalised area under dose-response curve [1]: 0.904 | normalised area under dose-response curve [2]: 0.819

Cc1cc(O)c(-c2ccc([C@@H](C)CN)cc2)c2c1[nH]c(=O)c1sccc12 [OTS514 hydrochloride]
normalised area under dose-response curve [1]: 0.368 | normalised area under dose-response curve [2]: 0.443

Cc1sc2c(c1C)C(c1ccc(Cl)cc1)=N[C@@H](CC(=O)Nc1ccc(O)cc1)c1nnc(C)n1-2 [OTX015]
normalised area under dose-response curve [1]: 0.817 | normalised area under dose-response curve [2]: 0.631

COC[C@H](NC(=O)c1cnc(C)s1)C(=O)N[C@@H](COC)C(=O)N[C@@H](Cc1ccccc1)C(=O)[C@@]1(C)CO1 [Oprozomib (ONX 0912)]
normalised area under dose-response curve [1]: 0.427 | normalised area under dose-response curve [2]: 0.333

Cc1[nH]c(/C=C2\C(=O)Nc3ccccc32)c(C)c1CCC(=O)O [Orantinib (TSU-68, SU6668)]
normalised area under dose-response curve [1]: 0.845 | normalised area under dose-response curve [2]: 0.843

C=CC(=O)Nc1cc(Nc2nccc(-c3cn(C)c4ccccc34)n2)c(OC)cc1N(C)CCN(C)C [Osimertinib (AZD9291)]
normalised area under dose-response curve [1]: 0.855 | normalised area under dose-response curve [2]: 0.749

O=C(O)C(=O)O.[NH-][C@@H]1CCCC[C@H]1[NH-].[Pt+2] [Oxaliplatin]
normalised area under dose-response curve [1]: 0.901 | normalised area under dose-response curve [2]: 0.844

Cc1cc(CS(=O)(=O)c2ccccc2)cc(OCc2ccc(CN3CCC[C@@H]3CO)cc2)c1 [PF-543]
normalised area under dose-response curve [1]: 0.924 | normalised area under dose-response curve [2]: 0.903

O=C(Nc1cccnc1)N1CCC(Cc2cccc(Oc3ccc(C(F)(F)F)cn3)c2)CC1 [PF-3845]
normalised area under dose-response curve [1]: 0.905 | normalised area under dose-response curve [2]: 0.912

COc1ccccc1C(=O)Nc1cc2c(cc1N1CCCC1)n(C)c(=O)n2C [PFI-4]
normalised area under dose-response curve [1]: 0.955 | normalised area under dose-response curve [2]: 0.787

O=C(/C=C/c1ccc2ccccc2n1)c1ccncc1 [PFK15]
normalised area under dose-response curve [1]: 0.911 | normalised area under dose-response curve [2]: 0.778

CCCCCCCCCCCCc1ccc(S(=O)(=O)Nc2nncs2)cc1 [PHT-427]
normalised area under dose-response curve [1]: 0.871 | normalised area under dose-response curve [2]: 0.931

CC(=O)Nc1nc(C)c(-c2ccc(Cl)c(S(=O)(=O)NCCO)c2)s1 [PIK-93]
normalised area under dose-response curve [1]: 0.927 | normalised area under dose-response curve [2]: 0.807

CCCS(=O)(=O)Nc1ccc(F)c(C(=O)c2c[nH]c3ncc(Cl)cc23)c1F [PLX-4720]
normalised area under dose-response curve [1]: 0.886 | normalised area under dose-response curve [2]: 0.842

N#CSc1cc(SC#N)c(N)nc1N [PR-619]
normalised area under dose-response curve [1]: 0.921 | normalised area under dose-response curve [2]: 0.875

O=C1C2CCN(CC2)C1(CO)CO [PRIMA-1]
normalised area under dose-response curve [1]: 0.947 | normalised area under dose-response curve [2]: 0.867

O=C1C(=Cc2cccnc2)C(=O)c2ccccc21 [PRT4165]
normalised area under dose-response curve [1]: 0.875 | normalised area under dose-response curve [2]: 0.746

O=C(Nc1cc(Cl)cc2c1[nH]c1cnccc12)c1cccnc1 [PS-1145]
normalised area under dose-response curve [1]: 0.923 | normalised area under dose-response curve [2]: 0.839

COc1cc(Br)c(Nc2nc(-c3c(C)nc4ncccn34)cs2)c(Br)c1 [PTC-209 HBr]
normalised area under dose-response curve [1]: 0.836 | normalised area under dose-response curve [2]: 0.819

CCC(C)SSc1ncc[nH]1 (centres undefined) [PX-12]
normalised area under dose-response curve [1]: 0.985 | normalised area under dose-response curve [2]: 0.903

CCOC(=O)c1ccc(N2NC(=O)C(=Cc3ccc([N+](=O)[O-])o3)C2=O)cc1 [PYR-41]
normalised area under dose-response curve [1]: 0.91 | normalised area under dose-response curve [2]: 0.807

CC(=O)O[C@H]1C(=O)[C@@]2(C)[C@H]([C@H](OC(=O)c3ccccc3)[C@]3(O)C[C@H](OC(=O)[C@H](O)[C@@H](NC(=O)c4ccccc4)c4ccccc4)C(C)=C1C3(C)C)[C@]1(OC(C)=O)CO[C@@H]1C[C@@H]2O [Paclitaxel]
normalised area under dose-response curve [1]: 0.432 | normalised area under dose-response curve [2]: 0.444

Cc1[nH]c2ccccc2c1CCNCc1ccc(/C=C/C(=O)NO)cc1 [Panobinostat (LBH589)]
normalised area under dose-response curve [1]: 0.421 | normalised area under dose-response curve [2]: 0.306

CCOc1cc2ncc(C#N)c(Nc3ccc(F)c(Cl)c3)c2cc1NC(=O)/C=C/CN(C)C [Pelitinib (EKB-569)]
normalised area under dose-response curve [1]: 0.846 | normalised area under dose-response curve [2]: 0.631

NS(=O)(=O)OC[C@@H]1C[C@@H](n2ccc3c(N[C@H]4CCc5ccccc54)ncnc32)C[C@@H]1O [Pevonedistat (MLN4924)]
normalised area under dose-response curve [1]: 0.825 | normalised area under dose-response curve [2]: 0.589

CS(=O)(=O)N1CCN(Cc2cc3nc(-c4cccc5[nH]ncc45)nc(N4CCOCC4)c3s2)CC1 [Pictilisib (GDC-0941)]
normalised area under dose-response curve [1]: 0.683 | normalised area under dose-response curve [2]: 0.596

CC(C)N(C[C@H]1O[C@@H](n2cnc3c(N)ncnc32)[C@H](O)[C@@H]1O)[C@H]1C[C@@H](CCc2nc3cc(C(C)(C)C)ccc3[nH]2)C1 [Pinometostat (EPZ5676)]
normalised area under dose-response curve [1]: 0.916 | normalised area under dose-response curve [2]: 0.8

CC(C)(C)c1[nH]cnc1/C=c1\[nH]c(=O)/c(=C/c2ccccc2)[nH]c1=O [Plinabulin (NPI-2358)]
normalised area under dose-response curve [1]: 0.588 | normalised area under dose-response curve [2]: 0.355

C=CC(=O)N1CCC(Oc2cc3c(Nc4ccc(Cl)c(Cl)c4F)ncnc3cc2OC)CC1 [Poziotinib (HM781-36B)]
normalised area under dose-response curve [1]: 0.908 | normalised area under dose-response curve [2]: 0.54

CCCCc1nc2cc(/C=C/C(=O)NO)ccc2n1CCN(CC)CC [Pracinostat (SB939)]
normalised area under dose-response curve [1]: 0.778 | normalised area under dose-response curve [2]: 0.799
